# Legend:
# Setaria viridis [1] = experiment: Herbicidal pre-emergence action (Part 2), 1280 g/ha; assay type: in vivo; conditions: application rate 1280 g/ha, scored visually after about 3 weeks, Table D4
# Method in brief: (§1)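 Pre-emergence test: monocot and dicot weed seeds were sown in sandy loam, and the soil surface was sprayed with WP or EC formulations at 1280 g/ha (600 L/ha water, 0.5% additive). After about 3 weeks in the greenhouse, damage was visually scored as percent versus untreated controls (100% = dead).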
# Abutilon theophrasti [2] = experiment: as above; assay type: in vivo; conditions: application rate 1280 g/ha, scored visually after about 3 weeks, Table D5
# Method in brief: as §1
# Poa annua [3] = experiment: as above; assay type: in vivo; conditions: application rate 1280 g/ha, scored visually after about 3 weeks, Table D3
# Method in brief: as §1
# Matricaria inodora [4] = experiment: as above; assay type: in vivo; conditions: application rate 1280 g/ha, scored visually after about 3 weeks, Table D7
# Method in brief: as §1
# Stellaria media [5] = experiment: as above; assay type: in vivo; conditions: application rate 1280 g/ha, scored visually after about 3 weeks, Table D8
# Method in brief: as §1
# Amaranthus retroflexus [6] = experiment: as above; assay type: in vivo; conditions: application rate 1280 g/ha, scored visually after about 3 weeks, Table D6
# Method in brief: as §1
# Setaria viridis [7] = experiment: Herbicidal post-emergence action (Part 2), 1280 g/ha; assay type: in vivo; conditions: application rate 1280 g/ha, rated visually after about 3 weeks, Table C3
# Method in brief: (§2)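 Greenhouse-grown weeds in sandy loam treated post-emergence at the one-leaf stage (2-3 weeks after sowing) with WP or EC formulations plus 0.5% additive at 600 L/ha water. Visual activity rated about 3 weeks later versus untreated controls, 0% (like control) to 100% (dead).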
# Echinochloa crus-galli [8] = experiment: as above; assay type: in vivo; conditions: post-emergence (Part 2), application rate 1280 g/ha, rated visually after about 3 weeks vs untreated controls
# Method in brief: as §2
# Abutilon theophrasti [9] = experiment: as above; assay type: in vivo; conditions: application rate 1280 g/ha, rated visually after about 3 weeks, Table C4
# Method in brief: as §2
# Poa annua [10] = experiment: as above; assay type: in vivo; conditions: application rate 1280 g/ha, rated visually after about 3 weeks, Table C2
# Method in brief: as §2
# Matricaria inodora [11] = experiment: as above; assay type: in vivo; conditions: application rate 1280 g/ha, rated visually after about 3 weeks, Table C6
# Method in brief: as §2
# Stellaria media [12] = experiment: as above; assay type: in vivo; conditions: application rate 1280 g/ha, rated visually after about 3 weeks, Table C7
# Method in brief: as §2
# Amaranthus retroflexus [13] = experiment: as above; assay type: in vivo; conditions: application rate 1280 g/ha, rated visually after about 3 weeks, Table C5
# Method in brief: as §2
# Pharbitis purpurea = experiment: Post-emergence herbicidal action, greenhouse, 320 g/ha; assay type: in vivo; conditions: application rate 320 g/ha, rated visually after about 3 weeks vs untreated controls
# Method in brief: (§3)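 Plants treated post-emergence at the one-leaf stage, 2 to 3 weeks after sowing in sandy loam, with WP or EC formulations plus 0.5% additive at 320 g/ha. Visual rating about 3 weeks later versus untreated controls (100% = dead, 0% = like control).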
# Setaria viridis [14] = experiment: as above; assay type: in vivo; conditions: application rate 320 g/ha, rated visually after about 3 weeks vs untreated controls
# Method in brief: as §3
# Veronica persica [15] = experiment: as above; assay type: in vivo; conditions: application rate 320 g/ha, rated visually after about 3 weeks vs untreated controls
# Method in brief: as §3
# Polygonum convolvulus [16] = experiment: as above; assay type: in vivo; conditions: application rate 320 g/ha, rated visually after about 3 weeks vs untreated controls
# Method in brief: as §3
# Abutilon theophrasti [17] = experiment: as above; assay type: in vivo; conditions: application rate 320 g/ha, rated visually after about 3 weeks vs untreated controls
# Method in brief: as §3
# Digitaria sanguinalis = experiment: as above; assay type: in vivo; conditions: application rate 320 g/ha, rated visually after about 3 weeks vs untreated controls
# Method in brief: as §3
# Matricaria inodora [18] = experiment: as above; assay type: in vivo; conditions: application rate 320 g/ha, rated visually after about 3 weeks vs untreated controls
# Method in brief: as §3
# Stellaria media [19] = experiment: as above; assay type: in vivo; conditions: application rate 320 g/ha, rated visually after about 3 weeks vs untreated controls
# Method in brief: as §3
# Amaranthus retroflexus [20] = experiment: as above; assay type: in vivo; conditions: application rate 320 g/ha, rated visually after about 3 weeks vs untreated controls
# Method in brief: as §3
# Viola tricolor [21] = experiment: as above; assay type: in vivo; conditions: application rate 320 g/ha, rated visually after about 3 weeks vs untreated controls
# Method in brief: as §3
# photosystem II (PS II) = molecular target: T1, photosystem II (PS II) (Spinacia oleracea, UniProt P69560); experiment: Measurement of PS II activity in thylakoid membranes (DCPIP reduction); assay type: biochemical, spinach; conditions: PS II activity in spinach thylakoid membranes, Table E1; read-out: Effect
# T1 construct: the chloroplasts were osmotically ruptured and the thylakoid membranes were then obtained by centrifugation; from tissue; host or cells: fresh spinach leaves; thylakoid membrane preparation from isolated chloroplasts
# Description: Cooled fresh spinach leaves were comminuted and homogenized in 50 mM phosphate buffer, pH 6.8. 10 mM KCl, 0.34 M sucrose (sucrose buffer) (blender, 1 g of plant material/ml). The homogenate was subsequently filtered through 4 layers of Miracloth and the chloroplasts were isolated by centrifugation, i.e. 10 min of centrifugation at 4400×g (4° C.). The sediment was suspended in 25 ml of sucrose buffer and re-centrifuged for 10 min at 4400×g (4° C.). The sediment was then suspended in 40 ml of 50 mM phosphate buffer, pH 6.8, 10 mM KCl, without sucrose. In this step, the chloroplasts were osmotically ruptured and the thylakoid membranes were then obtained by centrifugation (10 min, 4400×g, 4° C.). The membrane sediment was finally suspended in about 20 ml of 50 mM phosphate buffer, pH 6.8, 10 mM KCl. Following protein determination and activity determination, the membrane suspension was divided into aliquots and frozen in liquid nitrogen. The aliquots were stored at −80° C. Under these conditions, the photosystem II preparation was storage stable for at least three months. The activity determination of photosystem II (PS II) was then carried out using the following test principle: The electron transfer from PS II to an artificial electron acceptor, 2,6-dichlorophenolindophenol (DCPIP), was measured with exposure to light. The concentration of the blue oxidized form of DCPIP was determined spectrophotometrically at wavelength λ=595 nm. […] The activity determination is carried out in microtiter plates (96 cavities) in a reaction volume of 200 μl. Here, 155 μl of dilute membrane suspension were initially charged in 50 mM of phosphate buffer, pH 6.8, 10 mM KCl. Depending on the activity of the PS II preparation, the dilution was adjusted such that the measurement of the decrease in absorption (λ=595 nm) was linear for at least 10 min. In each case 5 μl solutions of the test compounds of a concentration of 100 μM in DMSO were added to the enzyme suspension; controls contained 5 μl of DMSO; the final concentration of DMSO in the reaction batch was thus 2.5% (v/v); this concentration had no adverse effect on the enzymatic activity. On each microtiter plate, a known PS II inhibitor, for example metribuzin, was used as standard, which allowed the quality of the PS II test to be assessed. The reaction was started by addition of 40 μl DCPIP solution (600 μM in distilled water); the final concentration of DCPIP was 120 μM. Measurement of absorption is carried out over a period of 10 min at 22° C. and with exposure to light. Using metribuzin as comparative substance, the results for the efficacy of the compounds of the general formula (I) at 100 μM are stated in the table below using the following classification: ++++(inhibition≥90%), +++(90%>inhibition≥70%), ++(70%>inhibition≥50%), +(50%>inhibition≥30%).
# Avena fatua = experiment: Pre-emergence herbicidal action, greenhouse, 320 g/ha; assay type: in vivo; conditions: application rate 320 g/ha, scored visually after about 3 weeks vs untreated controls
# Method in brief: (§4)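 Soil-surface application onto covered seeds; WP or EC formulation with 0.5% additive in aqueous spray; visual rating at ~3 weeks, 0–100% vs untreated plants.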
# Setaria viridis [22] = experiment: as above; assay type: in vivo; conditions: application rate 320 g/ha, Table B11
# Method in brief: as §4
# Veronica persica [23] = experiment: as above; assay type: in vivo; conditions: application rate 320 g/ha, Table B13
# Method in brief: as §4
# Echinochloa crus-galli [24] = experiment: as above; assay type: in vivo; conditions: application rate 320 g/ha, scored visually after about 3 weeks vs untreated controls
# Method in brief: as §4
# Polygonum convolvulus [25] = experiment: as above; assay type: in vivo; conditions: application rate 320 g/ha, scored visually after about 3 weeks vs untreated controls
# Method in brief: as §4
# Hordeum murinum = experiment: as above; assay type: in vivo; conditions: application rate 320 g/ha, Table B14
# Method in brief: as §4
# Abutilon theophrasti [26] = experiment: as above; assay type: in vivo; conditions: application rate 320 g/ha, scored visually after about 3 weeks vs untreated controls
# Method in brief: as §4
# Matricaria inodora [27] = experiment: as above; assay type: in vivo; conditions: application rate 320 g/ha, scored visually after about 3 weeks vs untreated controls
# Method in brief: as §4
# Stellaria media [28] = experiment: as above; assay type: in vivo; conditions: application rate 320 g/ha, scored visually after about 3 weeks vs untreated controls
# Method in brief: as §4
# Alopecurus myosuroides = experiment: as above; assay type: in vivo; conditions: application rate 320 g/ha, scored visually after about 3 weeks vs untreated controls
# Method in brief: as §4
# Amaranthus retroflexus [29] = experiment: as above; assay type: in vivo; conditions: application rate 320 g/ha, scored visually after about 3 weeks vs untreated controls
# Method in brief: as §4
# Viola tricolor [30] = experiment: as above; assay type: in vivo; conditions: application rate 320 g/ha, Table B8
# Method in brief: as §4
# Lolium rigidum = experiment: Herbicidal pre-emergence action (Part 2), 1280 g/ha; assay type: in vivo; conditions: application rate 1280 g/ha, scored visually after about 3 weeks, Table D2
# Method in brief: as §1
# Echinochloa crus-galli [31] = experiment: as above; assay type: in vivo; conditions: application rate 1280 g/ha, scored visually after about 3 weeks, Table D1
# Method in brief: as §1
structure (smiles),measurement,setting,value
CN1CCC(O)N(c2cc(C(C)(C)C)n(C)n2)C1=O (stereo not drawn) [I.1-315],Setaria viridis,Setaria viridis [1],100%
same,Abutilon theophrasti,Abutilon theophrasti [2],100%
same,Poa Annua,Poa annua [3],90%
same,Matricaria inodora,Matricaria inodora [4],100%
same,Stellaria media,Stellaria media [5],100%
same,Amaranthus retroflexus,Amaranthus retroflexus [6],100%
same,Setaria viridis,Setaria viridis [7],100%
same,Echinochloa crus-galli,Echinochloa crus-galli [8],100%
same,Abutilon theophrasti,Abutilon theophrasti [9],100%
same,Poa Annua,Poa annua [10],100%
same,Matricaria inodora,Matricaria inodora [11],90%
same,Stellaria media,Stellaria media [12],100%
same,Amaranthus retroflexus,Amaranthus retroflexus [13],100%
"CCCC(=O)OC1CCN(C)C(=O)N1c1cc(C(C)(C)C)on1 (stereo not drawn) [I.4-162, 3-(5-tert-Butyl-1,2-oxazol-3-yl)-1-methyl-2-oxohexahydropyrimidin-4-yl Butyrate]",Pharbitis purpurea (efficacy in %),Pharbitis purpurea,100%
same,Setaria viridis (efficacy in %),Setaria viridis [14],100%
same,Veronica persica (efficacy in %),Veronica persica [15],100%
same,Polygonum convolvulus (efficacy in %),Polygonum convolvulus [16],100%
same,Abutilon theophrasti (efficacy in %),Abutilon theophrasti [17],100%
same,Digitaria sanguinalis (efficacy in %),Digitaria sanguinalis,80%
same,Matricaria inodora (efficacy in %),Matricaria inodora [18],100%
same,Stellaria media (efficacy in %),Stellaria media [19],100%
same,Amaranthus retroflexus (efficacy in %),Amaranthus retroflexus [20],100%
same,Viola tricolor (efficacy in %),Viola tricolor [21],90%
same,inhibition at 100 µM,photosystem II (PS II),50 to 70%
same,Avena fatua (efficacy in %),Avena fatua,90%
same,Setaria viridis (efficacy in %),Setaria viridis [22],100%
same,Veronica persica (efficacy in %),Veronica persica [23],100%
same,Echinochloa crus-galli (efficacy in %),Echinochloa crus-galli [24],90%
same,Polygonum convolvulus (efficacy in %),Polygonum convolvulus [25],90%
same,Hordeum murinum (efficacy in %),Hordeum murinum,90%
same,Abutilon theophrasti (efficacy in %),Abutilon theophrasti [26],100%
same,Matricaria inodora (efficacy in %),Matricaria inodora [27],100%
same,Stellaria media (efficacy in %),Stellaria media [28],100%
same,Alopecurus myosuroides (efficacy in %),Alopecurus myosuroides,90%
same,Amaranthus retroflexus (efficacy in %),Amaranthus retroflexus [29],100%
same,Viola tricolor (efficacy in %),Viola tricolor [30],100%
CC(C)C(=O)OC1CCN(C)C(=O)N1c1cc(C(C)(C)C)on1 (stereo not drawn) [I.5-162],Setaria viridis,Setaria viridis [1],100%
same,Lolium rigidum,Lolium rigidum,90%
same,Echinochloa crus-galli,Echinochloa crus-galli [31],100%
same,Abutilon theophrasti,Abutilon theophrasti [2],100%
same,Poa Annua,Poa annua [3],100%
same,Matricaria inodora,Matricaria inodora [4],100%
same,Stellaria media,Stellaria media [5],100%
same,Amaranthus retroflexus,Amaranthus retroflexus [6],100%
same,Setaria viridis,Setaria viridis [7],100%
same,Echinochloa crus-galli,Echinochloa crus-galli [8],100%
same,Abutilon theophrasti,Abutilon theophrasti [9],100%
same,Poa Annua,Poa annua [10],100%
same,Matricaria inodora,Matricaria inodora [11],100%
same,Stellaria media,Stellaria media [12],100%
same,Amaranthus retroflexus,Amaranthus retroflexus [13],100%

# Source: US20200390100A1, “SUBSTITUTED N-HETEROCYCLYL- AND N-HETEROARYL-TETRAHYDROPYRIMIDINONES AND THE SALTS THEREOF, AND THE USE OF SAME AS HERBICIDAL ACTIVE SUBSTANCES” (Bayer Aktiengesellschaft, priority 2017, published 2020)
